Experimental data from patent US6664096B2, “Methods for improved diagnosis and treatment of mycobacterial infections” (priority 2000, dated 2003).
Like-named read-outs stand apart in the source and are kept apart here.

What was measured:
Format in all cases: cell-based
M. tuberculosis H37Ra [1] = assay: Resuscitation of 6 month old culture by phospholipids, CFU on 7H11 agar; details: for CFU/ml: 4 μg/ml, 6 month old cells, 7H11 agar, 3 weeks
Method: M. tuberculosis H37Ra cultures were grown in 7H9 medium containing Tween 80 (0.05%) and ADC (albumin-dextrose-catalase) enrichment at 37° C. for various periods of time as standing batch cultures. Cultures of varying age up to one year were used for the resuscitation experiments. Resuscitation of dormant M. tuberculosis by phosphatidylserine was performed as follows. A 6 month old M. tuberculosis H37Ra culture was washed and resuspended in 7H9 medium followed by plating at different dilutions on 7H11 agar plates containing 4 μg/ml phosphatidylserine (derived from bovine brain, containing a mixture of two unknown fatty acyl groups, Sigma Chemical Co.) or phosphatidylserine dioleoyl. The plates were incubated at 37° C. for 3 weeks when the CFU was determined. Data represent average of duplicate samples.
To confirm that a phospholipid was responsible for activity, we first tested commercially available phosphatidyl-L-serine and a dioleoyl phosphatidyl-L-serine, both of which are precursor of phosphatidylethanolamine and phosphatidylcholine, for resuscitation activity for the 6 month old M. tuberculosis H37Ra cells. Both compounds had significant resuscitation activity over medium control as judged by colony forming units (CFU) assay. Phosphatidyl-L-serine and a dioleoyl phosphatidyl-L-serine at 4 μg/ml gave 1.2×10^7, 2×10^6 CFU/ml, respectively, whereas the medium control produced 3×10^4 CFU/ml.

M. tuberculosis H37Ra [2] = details: 7-month-old culture
M. tuberculosis H37Ra [3] = details: 4 week old culture
M. tuberculosis H37Ra [4] = details: 7-month-old culture; remark: listed apart in the source
M. tuberculosis H37Ra [5] = details: 7-month-old culture; remark: listed apart in the source
M. tuberculosis H37Ra [6] = assay: Growth of small inocula of fresh 4-week-old culture with phosphatidylserine; details: 5 μg/ml in Sauton's medium, 20 days
Method: It is well known that to initiate growth of M. tuberculosis in liquid culture a large inoculum is required (Dubos and Davis, 1946). In a separate experiment involving a fresh 4-week-old M. tuberculosis H37Ra culture, the culture was serially diluted into Sauton's medium (1 ml) alone or into medium containing 5 μg/ml phosphatidylserine at 10^−2, 10^−3, 10^−4, 10^−5, 10^−6, 10^−7 dilutions. The cultures were incubated at 37° C. for 20 days when the visible growth was assessed and the cultures were plated on 7H11 plates, which were incubated at 37° C. for 3 weeks. Phosphatidyl-L-serine allowed small inocula (10^−7 dilution) to form visible growth and CFU on plates, whereas the control culture grew only at 10^−5 dilution.

Compound	CFU/ml (M. tuberculosis H37Ra [1])	FDA-EB viability staining (% of viable green cells) (M. tuberculosis H37Ra [2]; day 0) [%]	FDA-EB viability staining (% of viable green cells) (M. tuberculosis H37Ra [2]; day 5) [%]	FDA-EB viability staining (% of viable green cells) (M. tuberculosis H37Ra [2]; day 10) [%]	CFU values (M. tuberculosis H37Ra [3]; day 3) [mL⁻¹]	CFU values (M. tuberculosis H37Ra [3]; day 5) [mL⁻¹]	CFU values (M. tuberculosis H37Ra [3]; day 8) [mL⁻¹]	CFU values (M. tuberculosis H37Ra [3]; day 11) [mL⁻¹]	CFU data (M. tuberculosis H37Ra [4]; day 5)	CFU data (M. tuberculosis H37Ra [4]; day 10)	MTT data (OD readings at 570 nm) (M. tuberculosis H37Ra [5]; day 0) [OD]	MTT data (OD readings at 570 nm) (M. tuberculosis H37Ra [5]; day 5) [OD]	MTT data (OD readings at 570 nm) (M. tuberculosis H37Ra [5]; day 10) [OD]	small inocula (dilution) forming visible growth and CFU on plates (M. tuberculosis H37Ra [6])	resuscitation and growth enhancing activity (M. tuberculosis H37Ra [1]; compared with phosphatidylserine)
CCCCCCCC/C=C\CCCCCCCC(=O)OC[C@H](COP(=O)(O)OC[C@H](N)C(=O)O)OC(=O)CCCCCCC/C=C\CCCCCCCC [dioleoyl phosphatidyl-L-serine]	2×10^6 CFU/ml														
NH2-AQLQAVPGAAQYIGLVESVAGSCNNY-OH (H-AQLQAVPGAAQYIGLVESVAGSCNNY-OH; listed as Mycobacterium tuberculosis) [Peptide P4, residues 85-110]		1	11.5	50	2e+06	3.25e+06	7.5e+07	2e+08	50 × 10^5 CFU/ml	900 × 10^5 CFU/ml	0.2248	0.6287	1.4131		
NH2-LNATDPGAAAQFNASPVAQSYLRN-OH (H-LNATDPGAAAQFNASPVAQSYLRN-OH; listed as Mycobacterium tuberculosis) [Peptide P2, residues 48-71]		1	2	27.5	225000	500000	1.5e+07	7.5e+07	100 × 10^5 CFU/ml	200 × 10^5 CFU/ml	0.2609	0.6269	1.1567		
NH2-LRNFLAAPPPQRAAMAAQLQAV-OH (H-LRNFLAAPPPQRAAMAAQLQAV-OH; listed as Mycobacterium tuberculosis) [Peptide P3, residues 69-90]		2	4.5	42.5	450000	4.5e+07	1.5e+08	1.5e+08	40 × 10^5 CFU/ml	800 × 10^5 CFU/ml	0.3147	0.6219	1.1917		
phosphatidyl-L-serine	1.2×10^7 CFU/ml													10^−7	
phosphatidylglycerol-oleoyl-palmitoyl [reference compound]															did not have significant activity
